Test results from patent US9321781B2, “Topoisomerase inhibitors” (Rutgers, The State University of New Jersey, priority 2009, dated 2016).
Where two headings read alike, the source gives them in different places.

Experiments:
MDR1 = assay: MTT cytotoxicity assay, KBV-1 efflux transporter cell line; type: cell-based; conditions: human, KBV-1 cells (KB3-1 variant that overexpresses MDR1), KBV-1 cells (MDR1 overexpressing), continuous exposure four days
Procedure: (§1) Test B. Cytotoxic assays (cancer cell lines and efflux transporter cell lines)
(§2) The cytotoxicity was determined using the MTT-microtiter plate tetrazolinium cytotoxicity assay (MTA). The human lymphoblast RPMI 8402 and its camptothecin-resistant variant cell line, CPT-K5 was provided by Dr. Toshiwo Andoh (Aichi Cancer Center Research Institute, Nagoya, Japan). The P388 mouse leukemia cell line and its CPT-resistant TOP1-deficient variant P388/CPT45 were obtained from Michael R. Mattern and Randal K. Johnson (GlaxoSmithKline, King of Prussia, Pa.). The KB3-1 cell line and its multidrug-resistant variant KBV-1 were obtained from K.V. Chin (The Cancer Institute of New Jersey, New Brunswick, N.J.). The KBH5.0 cell line as noted previously was derived from KB3-1 by stepwise selection against Hoechst 33342. The cytotoxicity assay was performed using 96-well microtiter plates. Cells were grown in suspension at 37° C. in 5% CO2 and maintained by regular passage in RPMI medium supplemented with 10% heat inactivated fetal bovine serum, L-glutamine (2 mM), penicillin (100 U/mL), and Streptomycin (0.1 mg/mL). For determination of IC50, cells were exposed continuously for four days to varying concentrations of drug, and MTT assays were performed at the end of the fourth day. […] All assays were performed at least twice in six replicate wells.
(§3) The cytotoxicity of the representative compounds of the invention were also tested against cell line KB3-1 (parent cell line), KBV-1 (a variant that overexpresses efflux transporter MDR1) and KBH5.0 (a variant that overexpresses BCRP). Differences in the relative cytotoxicity between the parent and variant cell lines may be indicative of a compound that is a substrate for an efflux transporter. […] Accordingly, compounds of the invention may be useful to treat tumors that are resistant to other anticancer agents, including anticancer agents that are susceptible to efflux by BCRP (e.g. anthracyclines, mitoxantrone, topotecan, irinotecan, bisanthrone, doxorubicin, daunorubicin, and epirubin.

[1] = system: P388 mouse leukemia cell line; assay: MTT cytotoxicity assay (Test B), P388; type: cell-based; conditions: 96 h, P388 cells, continuous exposure four days
Procedure: as §1, §2

[2] = system: human lymphoblast RPMI 8402; assay: MTT cytotoxicity assay (Test B), RPMI 8402; type: cell-based; conditions: RPMI 8402 cells, continuous exposure four days, read-out: Cytotoxicity (IC50 values (μM) RPMI8402)
Procedure: as §1, §2

[3] = system: CPT-K5 (camptothecin-resistant variant cell line of RPMI 8402); assay: MTT cytotoxicity assay (Test B), CPT-K5; type: cell-based, human; conditions: CPT-K5 cells, continuous exposure four days
Procedure: as §1, §2

[4] = system: P388/CPT45 (CPT-resistant TOP1-deficient variant of P388); assay: MTT cytotoxicity assay (Test B), P388/CPT45; type: cell-based; conditions: Mus musculus, P388CPT45, 96 h, P388/CPT45 cells, continuous exposure four days
Procedure: as §1, §2

BCRP = assay: MTT cytotoxicity assay, KBH5.0 efflux transporter cell line; type: cell-based; conditions: human, KBH5.0 cells (KB3-1 variant that overexpresses BCRP); KBH5.0 cells (BCRP overexpressing), continuous exposure four days, MTT
Procedure: as §1, §2, §3

[5] = MTT cytotoxicity assay, KB3-1 parent cell line; type: cell-based; conditions: human, KB3-1 cells (parent cell line), KB3-1 parent cells, continuous exposure four days
Procedure: as §1, §2, §3

[6] = system: KBH5.0 (a variant that overexpresses BCRP); assay: MTT cytotoxicity assay, KBH5.0 efflux transporter cell line; type: cell-based; conditions: inferred from relative cytotoxicity KB3-1 vs KBH5.0
Procedure: as §1, §2, §3

| Structure (SMILES) | IC50 at 4 days (MDR1) [µM] | IC50 [1] [µM] | IC50 ([2]; Homo sapiens, RPMI 8402, 96 h) [µM] | IC50 [2] [µM] | IC50 [3] [µM] | IC50 ([3]; Homo sapiens, CPT-K5, 96 h) [µM] | IC50 [4] [µM] | IC50 at 4 days (BCRP) [µM] | IC50 at 4 days [5] [µM] | substrate for efflux transporter BCRP [6] | IC50 ([2]; Homo sapiens, 96 h) [µM] | IC50 ([3]; Homo sapiens, 96 h) [µM] |
| --- | --- | --- | --- | --- | --- | --- | --- | --- | --- | --- | --- | --- |
| COc1cc2c(cc1OC(=O)c1ccccc1)c(=O)n(CCN(C)C)c1c3cc4c(cc3ncc21)OCO4 [Example 1, 5-(2-(dimethylamino)ethyl)-9-methoxy-2,3-methylenedioxy-6-oxo-5,6-dihydrodibenzo[c,h][1,6]naphthyridin-8-yl benzoate] | 0.06 | 0.002 | 0.006 | 0.009 | 0.55 | 0.5 | 0.12 | 0.025 | 0.002 |  |  |  |
| COc1cc2c(cc1OC(=O)c1ccccc1C)c(=O)n(CCN(C)C)c1c3cc4c(cc3ncc21)OCO4 [Example 2, 5-(2-(dimethylamino)ethyl)-9-methoxy-2,3-methylenedioxy-6-oxo-5,6-dihydrodibenzo[c,h][1,6]naphthyridin-8-yl 2-methylbenzoate] | 0.2 | 0.03 | 0.07 | 0.05 |  | 2 | 0.4 | 0.04 | 0.04 | not a substrate for BCRP |  |  |
| COc1cc2c(cc1OC(C)=O)c(=O)n(CCN(C)C)c1c3cc4c(cc3ncc21)OCO4 [Example 3, 5-(2-(dimethylamino)ethyl)-9-methoxy-2,3-methylenedioxy-6-oxo-5,6-dihydrodibenzo[c,h][1,6]naphthyridin-8-yl acetate] | 0.06 | 0.004 | 0.009 |  |  | 0.7 | 0.3 | 0.025 | 0.007 |  |  |  |
| COc1cc2c(cc1OC(=O)C(C)(C)C)c(=O)n(CCN(C)C)c1c3cc4c(cc3ncc21)OCO4 [Example 4, 5-(2-(dimethylamino)ethyl)-9-methoxy-2,3-methylenedioxy-6-oxo-5,6-dihydrodibenzo[c,h][1,6]naphthyridin-8-yl pivalate] | 0.024 | 0.003 | 0.0007 |  |  | 0.3 | 0.25 | 0.017 | 0.002 |  |  |  |
| COc1cc2c(cc1OC(=O)CCC1CCCC1)c(=O)n(CCN(C)C)c1c3cc4c(cc3ncc21)OCO4 [Example 5, 5-(2-(dimethylamino)ethyl)-9-methoxy-2,3-methylenedioxy-6-oxo-5,6-dihydrodibenzo[c,h][1,6]naphthyridin-8-yl (3-cyclopentyl)propionate] | 0.058 | 0.002 | 0.003 |  |  | 0.33 | 0.07 | 0.013 | 0.003 |  |  |  |
| CCOC(=O)Oc1cc2c(=O)n(CCN(C)C)c3c4cc5c(cc4ncc3c2cc1OC)OCO5 [Example 6, 5-(2-(dimethylamino)ethyl)-9-methoxy-2,3-methylenedioxy-6-oxo-5,6-dihydrodibenzo[c,h][1,6]naphthyridin-8-yl ethyl carbonate] | 0.003 | 0.0002 | 0.0006 |  |  | 0.25 | 0.06 | 0.008 | 0.001 |  |  |  |
| COc1cc2c(cc1OC(=O)OC(C)(C)C)c(=O)n(CCN(C)C)c1c3cc4c(cc3ncc21)OCO4 [Example 7, tert-butyl 5-(2-(dimethylamino)ethyl)-9-methoxy-2,3-methylenedioxy-6-oxo-5,6-dihydrodibenzo[c,h][1,6]naphthyridin-8-yl carbonate] | 0.004 | 0.001 | 0.0005 |  |  | 0.31 | 0.08 | 0.009 | 0.002 |  |  |  |
| CCNC(=O)Oc1cc2c(=O)n(CCN(C)C)c3c4cc5c(cc4ncc3c2cc1OC)OCO5 [Example 8, 5-(2-(dimethylamino)ethyl)-9-methoxy-2,3-methylenedioxy-6-oxo-5,6-dihydrodibenzo[c,h][1,6]naphthyridin-8-yl ethylcarbamate] | 0.04 | 0.003 |  |  |  |  | 0.09 | 0.015 | 0.004 |  | 0.003 | 0.5 |
| COc1cc2c(cc1OC(=O)N(C)C)c(=O)n(CCN(C)C)c1c3cc4c(cc3ncc21)OCO4 [Example 9, 5-(2-(dimethylamino)ethyl)-9-methoxy-2,3-methylenedioxy-6-oxo-5,6-dihydrodibenzo[c,h][1,6]naphthyridin-8-yl dimethylcarbamate] | 3 | 1.3 |  |  |  |  | 3.8 | 2 | 0.4 |  | 1.7 | > 10 |
| COc1cc2c(cc1OC(=O)N1CCC(N3CCCCC3)CC1)c(=O)n(CCN(C)C)c1c3cc4c(cc3ncc21)OCO4 [Example 10, 5-(2-(dimethylamino)ethyl)-9-methoxy-2,3-methylenedioxy-6-oxo-5,6-dihydrodibenzo[c,h][1,6]naphthyridin-8-yl 1,4′-bipiperidine-1′-carboxylate] | 1.6 | 0.5 |  |  |  |  | 0.5 | 1.1 | 0.75 |  | 0.55 | 1.5 |
